Test results published in US11160817B2, “Nutritional compositions comprising neuroprotective dietary oligosaccharides” (ABBOTT LABORATORIES, priority 2012, dated 2021).
Like-named read-outs stand apart in the source and are kept apart here. Marks after values point to notes of the source that are not given here.

Tests used:
[1] = system: nitric oxide synthase (NOS), all isoforms; settings: cited from earlier work
[2] = non-human primates, peripheral injection at 50 and 300 mg/kg; cited from earlier work
[3] = mice, peripheral injection at 50 and 300 mg/kg; cited from earlier work
[4] = system: NMDA subclass of glutamate receptors; settings: cited from earlier work
[5] = system: fecal samples from breast-fed infants (intestinal flora); experiment: Anaerobic fermentation of HMOs with fecal inocula of breast-fed infants, agmatine in supernatant by GC/MS and LC/MS/MS; assay type: cell-based, human; settings: for Increase of agmatine, HMO/blank (relative ratio of agmatine compared to the blank): breast fed infants, fermentation culture 37° C.
Protocol: (§1) Fecal samples from eight human babies, one group of four breast-fed and the other group of four formula-fed, were used as inocula for anaerobic fermentation (37° C.) of lacto-N-neotetraose (LNnT) and 2′-fucosyllactose. Supernatants from the fermentation cultures were sampled at 0 hr, 3 hr, and 6 hr. A culture without addition of HMOs served as a control. A sample of the fermentation medium (blank), which constituted approximately 90% of the starting culture volume, was also analyzed.
(§2) Samples were extracted and split into equal parts for analysis on GC/MS and LC/MS/MS platforms. Agmatine ions were identified in chromatograms, and peak area was integrated for quantitative analysis.

[6] = system: fecal samples from formula-fed infants (intestinal flora); experiment: Anaerobic fermentation of HMOs with fecal inocula of formula-fed infants, agmatine in supernatant by GC/MS and LC/MS/MS; assay type: cell-based, human; settings: for Increase of agmatine, HMO/blank (relative ratio of agmatine compared to the blank): formula fed infants, fermentation culture 37° C.
Protocol: as §1, §2

Row | SMILES | inhibition of NOS isoforms [1] | nitric oxide production [1] | brain agmatine concentrations [2] | brain agmatine concentrations [3] | affinity for the NMDA subclass of glutamate receptors [4] | Increase of agmatine, HMO/blank (relative ratio of agmatine compared to the blank) ([5]; 0 h) | Increase of agmatine, HMO/blank (relative ratio of agmatine compared to the blank) ([5]; 3 h) | Increase of agmatine, HMO/blank (relative ratio of agmatine compared to the blank) ([5]; 6 h) | agmatine relative to a blank (in words) ([5]; fecal samples from breast-fed infants (BF)) | agmatine relative to a blank (in words) ([6]; fecal samples from formula-fed infants (FF)) | Increase of agmatine, HMO/blank (relative ratio of agmatine compared to the blank) ([6]; 0 h) | Increase of agmatine, HMO/blank (relative ratio of agmatine compared to the blank) ([6]; 3 h) | Increase of agmatine, HMO/blank (relative ratio of agmatine compared to the blank) ([6]; 6 h)
1 | N=C(N)NCCCCN [agmatine] | inhibit all isoforms of NOS | suppress nitric oxide production | significant increases in brain agmatine concentrations | significant increases in brain agmatine concentrations | modest affinity |  |  |  |  |  |  |  | 
2 | CC(=O)N[C@H]1[C@H](O[C@H]2[C@@H](O)[C@@H](CO)O[C@@H](O[C@H]3[C@H](O)[C@@H](O)C(O)O[C@@H]3CO)[C@@H]2O)O[C@H](CO)[C@@H](O[C@@H]2O[C@H](CO)[C@H](O)[C@H](O)[C@H]2O)[C@@H]1O (mixture of isomers) [LNnT, lacto-N-neotetraose] |  |  |  |  |  | 9.52^a | 34.4 | 1.59 | dramatic increases in agmatine | dramatic increases in agmatine | 2.12 | 61.77^a | 75.02^a
